What was measured:
COMT in HLC [1] = biological target: T1, COMT in HLC (Homo sapiens, UniProt P21964); experiment: Methylation kinetics in pooled human liver cytosol (HLC); format: in vitro ADME; details: identified by NMR
T1 construct: Pooled human liver cytosol (HLC) from seven male donors; tissue Research Institute for Liver Diseases (Shanghai, China) Lot; QROX; host or cells: pooled human liver cytosol, seven male donors
T1 sequence (P21964 1-221 isoform P21964-2): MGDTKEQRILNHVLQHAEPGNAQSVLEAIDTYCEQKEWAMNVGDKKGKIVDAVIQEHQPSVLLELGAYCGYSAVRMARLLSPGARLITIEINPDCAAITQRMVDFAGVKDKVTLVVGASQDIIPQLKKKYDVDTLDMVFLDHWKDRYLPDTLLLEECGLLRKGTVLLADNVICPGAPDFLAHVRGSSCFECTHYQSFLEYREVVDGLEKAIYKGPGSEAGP

COMT in HLC [2] = biological target: T1, COMT in HLC; experiment: as above; format: in vitro ADME; details: for Clint: intrinsic clearance (Vmax/Km); for COMT substrate in human liver cytosol: human liver cytosol with SAM
Description: (§1) Reaction mixtures were pre-incubated at 37°C for 5 min and initiated by the addition of SAM to a final concentration of 0.4 mM. The samples were incubated for a certain period of time and the reaction was terminated by the addition of 200 µl ice-cold acetonitrile and then centrifuged at 20 000g, 4°C, for 20 min. Control incubations were performed either without human liver cytosol, or without SAM or without substrate. The supernatants were subjected to ultra-fast liquid chromatography (UFLC) coupled with a diode array detector (DAD) and an electrospray ionization (ESI) mass spectrometer (MS) analyzer.
(§2) 7,8-DHCs and their methylated conjugates were analysed by a UFLC spectrometry system (Shimadzu, Kyoto, Japan), equipped with two LC-20AD pumps, a DGU-20A3 vacuum degasser, a SIL-20ACHT auto-sampler, a CTO-20AC column oven, an SPD-M 20A DAD, a CBM-20A communications bus module, a mass detector (2010EV) with an ESI interface and a computer equipped with UFLC-MS SOLUTION v. 3.41 software. A Shimadzu ODS (75.0 × 2.0 mm, 3 µm) analytical column was used to separate 7,8-DHCs and their methylated conjugates. Column temperature was kept at 40°C. […] The methylation samples were stable over 72 h at 4°C. 7,8-DHC methylation was quantified by the standard curves of the methylated conjugates at the detector wavelength of 325 nm, which were linear from 0.01 to 10 µM (the correlation coefficient was 0.999).
(§3) For estimating kinetic parameters, 7,8-DHCs (0.1–40 µM) were incubated with pooled HLC and S-COMT. 7,8-DHCs (0.1–40 µM) were incubated with HLC or S-COMT for 5 min, using a microsomal protein concentration of 0.5 mg ml^−1 or 0.002 mg ml^−1 for HLC and S-COMT, respectively. Kinetic constants for 7,8-DHCs methylation by HLC and S-COMT were obtained by fitting the Michaelis–Menten kinetics equation (3.1) to experimental data.
(§4) For the Michaelis–Menten kinetic model, 3.1 v=Vmax×[S]/Km+[S], where v is the rate of reaction, [S] is the substrate concentration, Vmax is the maximum velocity estimate and Km is the apparent affinity constant.
(§5) All incubations were performed in duplicate. Kinetic constants were obtained using GraphPad PRISM 6 (GraphPad Software, Inc. La Jolla, CA) software.

[3] = biological target: T2, recombinant human soluble COMT (S-COMT) (Homo sapiens, UniProt P21964); experiment: Methylation kinetics with recombinant human soluble COMT; format: in vitro ADME; details: for Clint: intrinsic clearance (Vmax/Km)
T2 construct: made in house
T2 sequence (P21964 1-221 isoform P21964-2): T1 sequence (P21964 1-221 isoform P21964-2)
Description: as §1, §2, §3, §4, §5

human hepatocytes = details: cited from earlier work
[4] = after administration in rats; cited from earlier work

SMILES	methylated metabolite identified (COMT in HLC [1])	Clint (COMT in HLC [2]; HLC)	COMT substrate in human liver cytosol (COMT in HLC [2])	Clint [3]	Vmax (COMT in HLC [2]; HLC, best-fit value ± s.e.)	Vmax ([3]; best-fit value ± s.e.)	methyl-derived metabolites (human hepatocytes)	half-life [4]
O=C(O)Cc1cc(=O)oc2c(O)c(O)ccc12 [4-ADPN, 4-acetic acid daphnetin]	8-O-methylated 7,8-DHC	0.017 µL/min/mg	COMT substrates	31.1 µL/min/mg	–	–	–	–
Cc1cc(=O)oc2c(O)c(O)ccc12 [4-MDPN, 4-methyl daphnetin]	8-O-methylated 7,8-DHC	0.70 µL/min/mg	COMT substrates	154.8 µL/min/mg	–	–	–	–
O=c1cc(-c2ccccc2)c2ccc(O)c(O)c2o1 [4-PDPN, 4-phenyl daphnetin]	8-O-methylated 7,8-DHC	1.91 µL/min/mg	COMT substrates	424.0 µL/min/mg	–	–	–	–
O=c1ccc2ccc(O)c(O)c2o1 [daphnetin, 7,8-dihydroxycoumarin]	8-O-methylated 7,8-DHC	0.52 µL/min/mg	COMT substrates	169.5 µL/min/mg	0.11 ± 0.0034 nmol/min/mg	81.4 ± 2.4 nmol/min/mg	37.3%	15 min

Source: paper PMC5792912 (Royal Society Open Science, 2018)
